The text below walks through data of ChEMBL document CHEMBL1201862, “PubChem BioAssay data set” (2004).

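Compound exposure: 48 hours, 5 concentrations, 96-well plates. GI50: concentration for 50% inhibition of growth.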 Calls of active or inactive are those of the source. Cut-off read from the data, not from the text of the source: active = GI50 up to about 1.1 µM and inactive = higher. Where only a bound is given, the exact number is not on record here.

Holding throughout (test): NCI-60 cell line screen, 48 h
Assay [1] relates to ACHN.
For assay [2], the system named is CCRF-CEM.
For assay [3], the system named is COLO 205.
Assay [4] relates to EKVX.
In assay [5] the test system is HCT-116.
For assay [6], the system named is HL-60.
Assay [7] concerns IGROV-1.
Assay [8] relates to MDA-N.
Assay [9] has as its system Malme-3M.
In assay [10] the test system is OVCAR-5.
The subject of assay [11] is OVCAR-8.
Assay [12] has as its system SF-268.
The subject of assay [13] is SN12C.
In assay [14] the test system is SW-620.
Assay [15] concerns TK-10.
Assay [16] has as its system UACC-62.
Assay [17] deals with UO-31.
Assay [18] has as its system CAKI-1.
For assay [19], the system named is HCC 2998.
Assay [20] concerns NCI-H460.

Take `CCSc1n/c(=C\c2ccco2)c2nncn12`: the GI50 in assay [1], in [2], in [3], in assay [4], in assay [5] and in assay [6] was > 100 µM (inactive) in each case. The GI50 in assay [7], in assay [8], in assay [9], in assay [10], in assay [11] and in [12] was > 100 µM (inactive) in each case. Moreover, the GI50 in [13], in assay [14], in assay [15], in [16] and in assay [17] was > 100 µM (inactive) throughout.

For the molecule `NC(=O)NNC(=O)c1nc[nH]c1[N+](=O)[O-]`, the GI50 in assay [18], in [2], in assay [3], in assay [4], in [19] and in assay [5] was > 100 µM (inactive) in each case. The GI50 in [7], in assay [8], in assay [9], in assay [20], in [10] and in [11] was > 100 µM (inactive) in each case. Moreover, the GI50 in assay [12], in assay [13], in assay [14], in [15], in [16] and in assay [17] was > 100 µM (inactive) each time.

Consider `CC(=O)[C@]12OC(=O)C3=C1[C@H](CC[C@@H]3C)[C@@H](C)C[C@H]2C=C(C)C`, for which the GI50 in [1] is 8.11 µM (inactive); in assay [18] it was 6.49 µM (inactive); in assay [2], 9.44 µM (inactive); in assay [3], 8.79 µM (inactive); in [5], 6.55 µM (inactive); in [6], 7.71 µM (inactive). The GI50 in assay [7] is 7.35 µM (inactive); in [8], 7.59 µM (inactive); in [20] it was 8.63 µM (inactive); in [10] it was 8.11 µM (inactive); in assay [11], 8.49 µM (inactive); in [12], 8.47 µM (inactive). The GI50 in assay [13] is 8.69 µM (inactive); in [14], 7.55 µM (inactive); in assay [16] it was 5.68 µM (inactive); in assay [17] it was 8.22 µM (inactive).

`Cc1cc(C)nc(NS(=O)(=O)c2ccc(NC(=O)c3c4ccccc4nc4ccccc34)cc2)n1`: the GI50 in assay [1] was 84.7 µM (inactive); in assay [18], 87.3 µM (inactive); in assay [2] it was > 100 µM (inactive); in assay [3], 75.2 µM (inactive); in [4], > 100 µM (inactive); in [19], > 100 µM (inactive). Besides, the GI50 in assay [5] was 68.4 µM (inactive); in assay [7], 31.2 µM (inactive); in assay [8], > 100 µM (inactive); in [9], 17.4 µM (inactive); in assay [20], > 100 µM (inactive); in assay [10], > 100 µM (inactive). Moreover, the GI50 was 47.9 µM (inactive) in assay [11]; > 100 µM (inactive) in [12]; > 100 µM (inactive) in assay [13]; > 100 µM (inactive) in assay [14]; 82.2 µM (inactive) in assay [15]; > 100 µM (inactive) in [16]. The GI50 in [17] was 37.4 µM (inactive).

`COC(OC)[C@@H]1OC[C@@H](O)[C@@H]1n1cnc2c(N)ncnc21`: the GI50 in [1], in [18], in assay [2], in assay [3], in [4] and in [19] was > 100 µM (inactive) each time. For the same molecule, the GI50 in [5], in assay [7], in assay [8], in assay [9], in [20] and in assay [10] was > 100 µM (inactive) each time. Besides, the GI50 in assay [12], in assay [13], in assay [14], in [15], in assay [16] and in [17] was > 100 µM (inactive) each time.

Turning to `CC1=NN2C(=O)CC(=O)N=C2S1`, the GI50 in assay [1], in assay [18], in assay [2], in assay [3], in assay [4] and in assay [5] was > 100 µM (inactive) each time. The GI50 in assay [6], in [7], in [8], in assay [9], in assay [20] and in [10] was > 100 µM (inactive) in each case. Also, the GI50 in assay [11], in assay [12], in [13], in assay [14], in assay [15] and in assay [16] was > 100 µM (inactive) throughout.

Consider `COC(=O)C(COC(=O)/C=C/c1ccc(OC(C)=O)c(OC(C)=O)c1)OC(=O)/C=C/c1ccc(OC(C)=O)c(OC(C)=O)c1` (centres undefined), for which the GI50 in assay [1] is 14.5 µM (inactive); in [18] it was 6.87 µM (inactive); in [2], 3.38 µM (inactive); in assay [3], 15.9 µM (inactive); in assay [4], 17.5 µM (inactive); in assay [19], 17.5 µM (inactive). For the same molecule, the GI50 in assay [5] was 4.14 µM (inactive); in assay [7] it was 4.94 µM (inactive); in [8], 9.73 µM (inactive); in assay [9] it was 15.5 µM (inactive); in [20], 18.7 µM (inactive); in assay [10], 13 µM (inactive). In addition, the GI50 in [11] was 11.8 µM (inactive); in assay [12] it was 12.4 µM (inactive); in assay [13], 14.6 µM (inactive); in [14], 6.27 µM (inactive); in [15] it was 18.6 µM (inactive); in [16], 16.8 µM (inactive). Moreover, the GI50 in [17] is 10 µM (inactive).

With `Cc1cnc2nc(-c3sccc3C)cc(O)c2c1`, the GI50 in assay [1] was 8.85 µM (inactive); in assay [18] it was 6.47 µM (inactive); in [2], 1.6 µM (inactive); in assay [3], 3.21 µM (inactive); in assay [4] it was 7.06 µM (inactive); in assay [19], 6.07 µM (inactive). For the same molecule, the GI50 is 3.33 µM (inactive) in assay [5]; 1.49 µM (inactive) in assay [7]; 0.361 µM (active) in assay [8]; 1.37 µM (inactive) in assay [9]; 2.99 µM (inactive) in [20]; > 24 µM (inactive) in assay [10]. Moreover, the GI50 in [11] is 4.06 µM (inactive); in assay [12] it was 10.9 µM (inactive); in assay [13], 10.2 µM (inactive); in assay [14] it was 1.91 µM (inactive); in assay [15], > 33.7 µM (inactive); in [16], 2.59 µM (inactive). Further, the GI50 in [17] is 6.25 µM (inactive).
